Test results published in PubChem BioAssay (NCI).
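These data come from cells grown in 96-well plates and exposed to compound for 48 hours at five concentrations. Abbreviation: GI50, concentration required for 50% inhibition of growth. At the TGI there is no net growth.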

What was measured:
Assay in all cases: NCI anticancer screen, dose series, 48 h
[1] = tested on: M14 melanoma
[2] = tested on: BT-549 breast
[3] = tested on: MCF7 breast
[4] = tested on: MALME-3M melanoma
[5] = tested on: ACHN renal
[6] = tested on: SNB-19 CNS
[7] = tested on: HL-60(TB) leukemia
[8] = tested on: U251 CNS
[9] = tested on: A498 renal
[10] = tested on: SR leukemia

| Compound | TGI [1] | TGI [2] | TGI [3] | TGI [4] | TGI [5] | TGI [6] | TGI [7] | TGI [8] | TGI [9] | TGI [10] | GI50 [1] | GI50 [2] | GI50 [3] | GI50 [4] | GI50 [5] | GI50 [6] | GI50 [8] |
| --- | --- | --- | --- | --- | --- | --- | --- | --- | --- | --- | --- | --- | --- | --- | --- | --- | --- |
| Cn1cnc2c(sc3nc4ccccc4n32)c1=N | > 100 µM | > 100 µM | > 100 µM | > 100 µM | > 100 µM | > 100 µM | > 100 µM | > 100 µM | > 100 µM |  |  |  |  |  |  |  |  |
| COc1cc(C2SCC(=O)N2c2ccc(Oc3ccc(Cl)cc3)c(Cl)c2)cc(OC)c1OC (configuration not stated) | 83.1 µM | 32.5 µM | > 100 µM | 37.5 µM | > 100 µM | > 100 µM |  | > 100 µM |  | > 100 µM |  |  |  |  |  |  |  |
| O=C(NCCCNCCNC(=O)c1cc(-c2ccccc2)nc2ccccc12)c1cc(-c2ccccc2)nc2ccccc12 | 3.95 µM | 29.4 µM | 3.15 µM | 3.43 µM | 3.3 µM | 3.93 µM | 4.3 µM | 3.24 µM | 4.76 µM | 8.73 µM |  |  |  |  |  |  |  |
| O=C(CNc1ccc(Cl)cc1Cl)NC1C=Cc2ccc(S(=O)(=O)Nc3ccc(Cl)cc3Cl)cc2C1=O (configuration not stated) | > 100 µM | > 100 µM | > 100 µM | > 100 µM | > 100 µM | > 100 µM | > 100 µM | > 100 µM |  | > 100 µM |  |  |  |  |  |  |  |
| C=CC[C@@]1(C(=O)OC)[C@H](Sc2ccccc2)C1(C)C | > 100 µM | > 100 µM | 74.1 µM | 84.9 µM | > 100 µM | > 100 µM | 45.8 µM | > 100 µM | > 100 µM |  |  |  |  |  |  |  |  |
| O=c1[nH]nc(Cc2ccccc2)n1-n1cnnc1 | > 100 µM | > 100 µM | > 100 µM |  | > 100 µM | > 100 µM |  | > 100 µM |  | > 100 µM |  |  |  |  |  |  |  |
| COc1ccc(/C=C2\N=C(c3ccccc3)N(C3Nc4cc5c(cc4S3)NC(N3C(=O)/C(=C/c4ccc(OC)cc4)N=C3c3ccccc3)S5)C2=O)cc1 (configuration not stated) | > 100 µM | 61.9 µM | > 100 µM |  | > 100 µM |  | > 100 µM | 63.7 µM | > 100 µM | > 100 µM |  |  |  |  |  |  |  |
| CC(=O)O[C@H]1C(=O)[C@@]2(C)[C@H]([C@H](OC(=O)c3ccccc3)[C@]3(O)C[C@H](OC(=O)[C@H](O)[C@@H](NC(=O)CC(C)(C)C)c4ccccc4)C(C)=C1C3(C)C)C1(OC(C)=O)CO[C@@H]1C[C@@H]2O (some centres not stated) | > 10 µM | > 10 µM | > 10 µM |  | > 10 µM | > 10 µM |  |  | > 10 µM |  |  |  |  |  |  |  |  |
| CC(=O)N1CCN(C23OC4(N5CCN(C(C)=O)CC5)C5C6CC(C7C6C4C72)C53)CC1 (configuration not stated) | > 100 µM | > 100 µM | > 100 µM | > 100 µM | > 100 µM | > 100 µM | > 100 µM | > 100 µM |  | > 100 µM |  |  |  |  |  |  |  |
| O=C1c2cccc3cccc(c23)C(=O)N1CCCNOCCONCCCN1C(=O)c2cccc3cccc(c23)C1=O | > 100 µM | > 100 µM | > 100 µM | > 100 µM | > 100 µM | > 100 µM | > 100 µM | > 100 µM | > 100 µM | > 100 µM |  |  |  |  |  |  |  |
| C=C(C)C1CC=C(C)C2(C1)OCC(C)(C)C(C)O2 (configuration not stated) | 47.1 µM | 36 µM | 33.9 µM | 29.5 µM | 40.9 µM | 33.3 µM | 35.5 µM | 31 µM | 28.9 µM | 43.6 µM |  |  |  |  |  |  |  |
| CC(C)OP(=O)(OC(C)C)C(C(C)C)N(C)/C(F)=N/C(F)(F)F (configuration not stated) | > 100 µM | > 100 µM | > 100 µM | > 100 µM | > 100 µM | > 100 µM | > 100 µM | > 100 µM | > 100 µM |  |  |  |  |  |  |  |  |
| CN(C)CCNc1ncnc2nc(-c3ccc4ccccc4c3)[nH]c12 | > 100 µM | > 100 µM | > 100 µM | > 100 µM | > 100 µM | > 100 µM | > 100 µM | > 100 µM |  | > 100 µM |  |  |  |  |  |  |  |
| COc1cc(S(=O)(=O)Nc2ccc(C3=NNC(c4ccccc4)C3)cc2)ccc1F (configuration not stated) | > 100 µM | > 100 µM | > 100 µM | 49.8 µM | > 100 µM | > 100 µM |  | > 100 µM |  |  | 27.6 µM | > 100 µM | 22.2 µM | 13.2 µM | 35.2 µM | > 100 µM | 43.5 µM |
| Cc1ccc(N=Nc2c(C)c(C#N)c(=S)n(C3OC(CO)C(O)C(O)C3O)c2-c2ccccc2)cc1 (configuration not stated) | 30.4 µM | 42.1 µM | 34.7 µM | 47.7 µM | > 100 µM | 48.1 µM | > 100 µM | 30.8 µM | 33.2 µM |  |  |  |  |  |  |  |  |
| Cc1cc(=O)oc2cc(O)ccc12 |  | > 100 µM | > 100 µM | > 100 µM | > 100 µM | > 100 µM | > 100 µM | > 100 µM | > 100 µM | > 100 µM |  |  |  |  |  |  |  |
| O=C(NCc1ccc(Cl)cc1)c1cc2sccc2nc1C(F)(F)F | > 100 µM | > 100 µM | > 100 µM | > 100 µM | 45.8 µM | 51.7 µM |  | 44.6 µM |  | > 100 µM |  |  |  |  |  |  |  |
| CC(=O)OCC=C(CCl)CCC(Br)C(C)(C)Br (mixture of isomers) | > 10 µM | > 10 µM | > 10 µM | > 10 µM | > 10 µM | > 10 µM | > 10 µM | > 10 µM | > 10 µM |  |  |  |  |  |  |  |  |
| Cc1sc2ccccc2[n+]1CCC(=O)O | > 100 µM | > 100 µM | > 100 µM | > 100 µM | > 100 µM | > 100 µM | 29.8 µM | > 100 µM | > 100 µM |  |  |  |  |  |  |  |  |
| O=c1oc2ccc(Cl)cc2cc1-c1cn2cc(Cl)ccc2n1 | > 100 µM | > 100 µM | 6.37 µM | 92.5 µM | > 100 µM | > 27.1 µM | > 100 µM | > 100 µM |  | > 100 µM |  |  |  |  |  |  |  |
| S=C(S)NCC1CCC(CNC(=S)S)CC1 (configuration not stated) | > 100 µM | > 100 µM | 81.3 µM | 63.1 µM | 39.2 µM | > 100 µM | > 100 µM | 43 µM | > 100 µM |  |  |  |  |  |  |  |  |
| CC(C)N(C)C(=O)C12C3C4C1C1C2C3C41C#N (configuration not stated) | > 100 µM | > 100 µM | > 100 µM |  | > 100 µM | > 100 µM | > 100 µM | > 100 µM | > 100 µM | > 100 µM |  |  |  |  |  |  |  |
| CCO/C(O)=C(/C(=N)N1CCCC1)C(=O)Nc1cccc(C(F)(F)F)c1 | > 100 µM | > 100 µM | > 100 µM | > 100 µM | > 100 µM | > 100 µM | > 100 µM | > 100 µM | > 100 µM |  |  |  |  |  |  |  |  |
